From PMC7876453, “Targeting Indoleamine 2,3-Dioxygenase in Cancer Models Using the Novel Small Molecule Inhibitor NTRC 3883-0” (Frontiers in Immunology, 2021)
Where two headings read alike, the source gives them in different places.

Assays:
[1] = molecular target: T1, A375 + IFNγ (hIDO1) (Homo sapiens, UniProt P14902); experiment: cell-based assay, Trp-catabolizing activity in IFNγ-stimulated A375 cells; settings: IFNγ-stimulated A375 human melanoma cells
T1 construct: host or cells: A375 cells stimulated with IFNγ

[2] = molecular target: T2, human IDO1 (Homo sapiens, UniProt P14902); experiment: human IDO1 biochemical assay (NFK GreenScreen); settings: human IDO1 biochemical assay
T2 construct: Full-length recombinant human and mouse IDO1 were expressed in Escherichia coli with a hexahistidine tag at the N-terminus; hexahistidine (N); made in house; host or cells: Escherichia coli

[3] = tested on: CT26 cells implanted subcutaneously into female BALB/c mice; experiment: CT26 mouse model, first study (ProQinase); assay type: in vivo; settings: 50 mg/kg NTRC 3748-0 b.i.d., 100 mg/kg epacadostat q.d.; for Kyn levels in the tumor: LC-MS/MS, 2 h post last dose; for tumor growth: p.o. from day 8
Protocol: For the first CT26 mouse model study, performed at ProQinase, 5 × 10^5 CT26 cells were implanted subcutaneously into female BALB/c mice on day 0. […] Tumor growth was monitored using caliper measurement 2 times weekly. The study was terminated at day 22 based on the tumor burden. Tumors and plasma were sampled 2 h post last dose.
(§1) Tissues were homogenized in PBS at a ratio of 1 mg per 10 μl using micro pellet pestles mounted on a Micro-Tube Homogenizer System (Thomas Scientific). After centrifugation, proteins were removed from the homogenized tissue supernatants and plasma samples by precipitation with methanol. The concentrations of inhibitor, Trp and Kyn were determined by LC-MS/MS.

[4] = tested on: IDO1; set-up: method as in doi:10.1200/JCO.2019.37.7_suppl.358; settings: once-daily oral dosing; cited from earlier work
[5] = tested on: TDO; settings: cited from earlier work
[6] = tested on: IDO1; settings: cited from earlier work
[7] = molecular target: HEK-hTDO (Homo sapiens, UniProt P48775); experiment: cell-based assay, Trp-catabolizing activity in HEK-hTDO cells
[8] = molecular target: T3, SW48 (hTDO) (Homo sapiens, UniProt P48775); experiment: cell-based assay, Trp-catabolizing activity in SW48 cells; settings: Trp-catabolizing activity
T3 construct: host or cells: SW48 cells

[9] = molecular target: T4, mTDO (Mus musculus, UniProt P48776); experiment: mouse TDO biochemical assay (NFK GreenScreen)
T4 construct: hexahistidine (C); made in house; host or cells: Escherichia coli
Protocol: (§2) Full-length recombinant human and mouse IDO1 were expressed in Escherichia coli with a hexahistidine tag at the N-terminus, and purified by affinity chromatography to > 95% purity, as described ([8]). Human and mouse TDO containing a C-terminal hexahistidine tag were analogously expressed and purified to > 95% purity ([8]). The inhibitory activity of compounds was determined with the NFK GreenScreen assay technology under the conditions as described ([8]), except for the reaction buffer for IDO1, which was replaced by 50 mM NaH2PO4, pH 7.0, supplemented with 0.01% Tween-20 and 1% glycerol. Inhibition of the CYP3A4 and CYP2D6 enzymes was determined with the P450-Glo™ Screening System with Luciferin-IPA (Promega, #V9920 and V9890). For determination of IC50 values, the effect of inhibitors was determined in 10-point duplicate dose-response curves. Graphs were fitted to a four-parameter logistics equation in XLfit (ID Business Solutions, Ltd., Guildford, UK) from which IC50 values were calculated.

[10] = tested on: IDO1; settings: cited from earlier work; remark: listed apart in the source
[11] = tested on: CT26 cells implanted subcutaneously into female BALB/c mice; experiment: CT26 mouse model, second study (Charles River); assay type: in vivo
Protocol: For the second study, performed at Charles River Laboratories, 3 × 10^5 CT26 cells were implanted subcutaneously into female BALB/c mice on day 0. […] Tumor growth was monitored using caliper measurement 3 times weekly. A tumor volume of 2000 mm^3 was used as the endpoint of the experiment for the individual animals. Tumors were sampled 2 h post last dose.
as §1

[12] = tested on: IDO1; settings: cited from earlier work; remark: listed apart in the source
[13] = tested on: unstimulated adherent cell samples isolated from ascites of ovarian cancer patients; experiment: Trp-catabolizing activity in unstimulated ascites cell samples; assay type: cell-based, human; settings: for IC50: Homo sapiens
Protocol: (§3) Ascites was collected from patients with a primary diagnosis of advanced epithelial ovarian cancer during paracentesis for diagnostics or symptom relieve, or during primary debulking surgery. Ascites was filtered and cells were collected by centrifugation as described ([23]). To enrich for tumor cells, ascites cell samples were allowed to adhere overnight to tissue culture plastic. The cell samples were then cultured for 2–3 weeks in advanced RPMI medium (ThermoFisher), supplemented with 10% FBS, 1% glutamax and 1% P/S, with 2 or 3 times passaging of the cells. qPCR analyses of the MUC16, HE4, IDO1, and TDO2 genes were performed for all samples as described above. Five samples which could be cultured over multiple passages were analyzed for cell surface expression of mucin-16 and EpCAM by flow cytometry using FITC-conjugated anti-mucin-16 (AssayPro, #32189-05141) and APC-conjugated anti-EpCAM (Miltenyi, #130-111-117, RRID: AB_2657496) to assure that the cell cultures consisted of malignant cells. IDO1 mRNA and protein levels in these samples were analyzed as described above after incubation with or without 200 ng/ml IFNγ for 24 h. The collection of ascites and the research described was conducted with approval of the medical ethical committee of the Radboud university medical center and informed written consent from each subject.

[14] = tested on: cell lines used in this study; experiment: cell viability assays (ATPlite 1Step); settings: in parallel with the cell-based assays
[15] = tested on: IFNγ-stimulated adherent cell samples isolated from ascites of ovarian cancer patients; experiment: Trp-catabolizing activity in IFNγ-stimulated ascites cell samples; assay type: cell-based; settings: Homo sapiens
Protocol: as §3

[16] = tested on: melanoma patients; settings: combination with pembrolizumab; cited from earlier work
[17] = tested on: B16F10-mIDO1 subline j19 in female B6D2F1 mice; experiment: B16F10-mIDO1 syngeneic mouse model, intervention study; assay type: in vivo; settings: 100 mg/kg p.o. b.i.d. from day 3
Description: For development of the mIDO1-overexpressing B16F10 mouse model, performed at Charles River Laboratories, female B6D2F1 mice were implanted subcutaneously with 1 × 10^6 parental B16F10 cells or B16F10-mIDO1 cells (subline i6 or j19) on day 0 with n = 10 mice per group. A tumor volume of 2000 mm^3 was used as the endpoint of the experiment for the individual animals. To determine the optimal inoculation cell concentration, mice were implanted with 3 × 10^5, 1 × 10^5 or 3 × 10^4 parental or mIDO1-overexpressing B16F10 cells (subline j19) with n = 5 mice per group. The same endpoint of the experiment was used as described above. […] For the intervention study, 3 x 10^5 cells of the B16F10-mIDO1 subline j19 were implanted on day 0, and treatment was started on day 3 with vehicle (DMSO, Kolliphor, 5% mannitol; […]. Four animals were excluded from analysis due to non-treatment-related deaths. Tumors and plasma were sampled 2 h post last dose.
[…]. After centrifugation, proteins were removed from the homogenized tissue supernatants and plasma samples by precipitation with methanol. The concentrations of inhibitor, Trp and Kyn were determined by LC-MS/MS.

[18] = molecular target: GL-261-mTDO (Mus musculus, UniProt P48776); experiment: cell-based assay, Trp-catabolizing activity in GL-261-mTDO cells; settings: read-out: inhibition GL-261-mTDO
[19] = molecular target: T5, human TDO (Homo sapiens, UniProt P48775); experiment: human TDO biochemical assay (NFK GreenScreen)
T5 construct: hexahistidine (C); made in house; host or cells: Escherichia coli
Protocol: as §2

[20] = tested on: CD8-positive T cells co-cultured with HEK-hIDO1 cells; experiment: co-culture assay of HEK-hIDO1 cells with PBMCs, CFSE proliferation; assay type: cell-based, human; settings: 7.5 µM Trp; 10 µM NTRC 3883-0, 1 µM epacadostat; 5 days

T2 sequence (P14902 whole entry): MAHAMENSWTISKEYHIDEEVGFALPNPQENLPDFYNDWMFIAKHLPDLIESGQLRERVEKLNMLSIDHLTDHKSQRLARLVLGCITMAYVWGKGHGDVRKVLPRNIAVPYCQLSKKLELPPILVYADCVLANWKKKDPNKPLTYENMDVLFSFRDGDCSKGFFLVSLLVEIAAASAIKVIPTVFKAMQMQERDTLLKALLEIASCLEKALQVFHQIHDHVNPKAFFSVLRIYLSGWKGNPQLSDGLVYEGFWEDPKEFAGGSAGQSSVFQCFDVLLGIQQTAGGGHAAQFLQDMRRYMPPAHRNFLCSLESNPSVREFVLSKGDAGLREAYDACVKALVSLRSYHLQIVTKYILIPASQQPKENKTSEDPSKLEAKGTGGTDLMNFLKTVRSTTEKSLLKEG
T1 sequence (P14902 whole entry): as above
HEK-hTDO, sequence (P48775 whole entry): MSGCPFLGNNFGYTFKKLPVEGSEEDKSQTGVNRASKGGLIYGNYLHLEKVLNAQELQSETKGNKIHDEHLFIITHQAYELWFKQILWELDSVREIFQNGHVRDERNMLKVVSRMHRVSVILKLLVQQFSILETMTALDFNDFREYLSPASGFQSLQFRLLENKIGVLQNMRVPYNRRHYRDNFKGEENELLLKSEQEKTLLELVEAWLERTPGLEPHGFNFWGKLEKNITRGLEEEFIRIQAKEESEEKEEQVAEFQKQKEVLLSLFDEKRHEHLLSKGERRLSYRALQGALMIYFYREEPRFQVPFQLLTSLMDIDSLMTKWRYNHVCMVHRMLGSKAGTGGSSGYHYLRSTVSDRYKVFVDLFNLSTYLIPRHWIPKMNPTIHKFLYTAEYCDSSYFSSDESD
GL-261-mTDO, sequence (P48776 whole entry): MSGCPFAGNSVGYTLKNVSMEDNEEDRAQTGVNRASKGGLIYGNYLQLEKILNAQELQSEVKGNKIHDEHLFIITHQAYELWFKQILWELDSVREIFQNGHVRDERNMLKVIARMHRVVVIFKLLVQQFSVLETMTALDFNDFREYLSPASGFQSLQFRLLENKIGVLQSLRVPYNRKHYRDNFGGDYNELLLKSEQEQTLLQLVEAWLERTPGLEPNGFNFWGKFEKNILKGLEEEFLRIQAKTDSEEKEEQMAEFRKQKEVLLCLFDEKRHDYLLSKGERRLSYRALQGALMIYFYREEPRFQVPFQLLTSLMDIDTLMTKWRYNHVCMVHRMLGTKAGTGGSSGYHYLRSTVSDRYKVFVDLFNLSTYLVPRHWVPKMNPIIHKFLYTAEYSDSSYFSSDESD
T4 sequence (P48776 whole entry): as above
T5 sequence (P48775 whole entry): as the sequence (P48775 whole entry) above
T3 sequence (P48775 whole entry): as above

## Cc1ccccc1C(=O)N1CC(=O)N(O)C1c1cccc(Br)c1 (centres unmarked) [Compound 3d]
[1]
  IC50: 21700 nM
[2]
  IC50: 4020 nM

## COc1ccccc1C(=O)N1CC(=O)N(O)C1c1cccc(Br)c1 (centres unmarked) [Compound 3e]
[1]
  IC50: > 31600 nM
[2]
  IC50: > 31600 nM

## O=C1CN(C(=O)c2ccccc2Cl)C(c2cccc(Br)c2)N1O (centres unmarked) [Compound 3f]
[1]
  IC50: 4600 nM
[2]
  IC50: 784 nM

## O=C1CN(C(=O)c2ccccc2Br)C(c2cccc(Br)c2)N1O (centres unmarked) [Compound 3g]
[1]
  IC50: 12500 nM
[2]
  IC50: 1780 nM

## O=C1CN(C(=O)c2cc(F)ccc2F)C(c2cccc(Br)c2)N1O (centres unmarked) [Compound 3h]
[1]
  IC50: 2830 nM
[2]
  IC50: 600 nM

## O=C1CN(C(=O)c2ccc(F)cc2F)C(c2cccc(Br)c2)N1O (centres unmarked) [Compound 3i]
[1]
  IC50: 2140 nM
[2]
  IC50: 582 nM

## O=C1CN(C(=O)c2c(F)cccc2F)C(c2cccc(Br)c2)N1O (centres unmarked) [Compound 3j]
[1]
  IC50: 589 nM
[2]
  IC50: 198 nM
[3]
  Kyn levels in the tumor: considerable reduction of Kyn levels
  tumor growth: inhibition of tumor growth

## O=C1CN(C(=O)c2c(F)cccc2F)[C@@H](c2cccc(Br)c2)N1O [Compound 3k]
[1]
  IC50: 4590 nM
[2]
  IC50: 2170 nM

## C[C@@H](C(=O)Nc1ccc(Cl)cc1)[C@H]1CC[C@@H](c2ccnc3ccc(F)cc32)CC1 [Linrodostat, linrodostat]
[4]
  safety and target coverage: safety and good target coverage

## N[C@@H](Cc1c[nH]c2ccccc12)C(=O)O [Trp, L-tryptophan]
[5]
  K M,Trp of TDO: 190 µM
[6]
  K M,Trp of IDO1: 6 µM

## NS(=O)(=O)NCCNc1nonc1C(=NO)Nc1ccc(F)c(Br)c1 [epacadostat, reference compound]
[7]
  IC50: 24100 nM
[7]; cell-based versus biochemical TDO IC50
  times lower activity on TDO in the HEK-hTDO assay than in the biochemical assay: more than 400 times
[8]
  IC50: 6460 nM
[9]
  IC50: 225 nM
[10]
  clinical benefit of the combination over pembrolizumab plus placebo: no clinical benefit
[11]; 100 mg/kg p.o. b.i.d. from day 8
  tumor growth: no inhibition of tumor growth
[11]; LC-MS/MS, 2 h post last dose, 100 mg/kg p.o. b.i.d.
  Kyn levels in the tumor: considerable reduction of Kyn levels
[12]
  tolerability in human patients: well tolerated
[13]
  inhibition of basal Trp-catabolizing activity (in words): no or only minimal inhibition
[13]; mean of samples, read-out: IC50 Mean
  IC50: 7730 nM
[13]; read-out: IC50 ASC 010
  IC50: 9640 nM
[13]; read-out: IC50 ASC 013
  IC50: 9940 nM
[13]; read-out: IC50 ASC 031
  IC50: 8630 nM
[13]; read-out: IC50 ASC 041
  IC50: 4310 nM
[14]
  cytotoxicity: not cytotoxic
[15]; IFNγ-stimulated samples, read-out: IC50
  IC50: 8.3 nM
[15]; IFNγ-stimulated, read-out: IC50 ASC 009
  IC50: 3.7 nM
[15]; IFNγ-stimulated, read-out: IC50 ASC 010
  IC50: 9.3 nM
[15]; IFNγ-stimulated, read-out: IC50 ASC 013
  IC50: 9 nM
[15]; IFNγ-stimulated, read-out: IC50 ASC 031
  IC50: 7.2 nM
[15]; IFNγ-stimulated, read-out: IC50 ASC 041
  IC50: 7.4 nM
[16]
  objective response: 12 out of 22
[17]
  tumor growth corrected for the variation in time until tumor establishment: delay in tumor growth
  tumor growth in comparison to vehicle-treated animals: no effect
[18]
  inhibition at 31.6 µM: 28%
[19]
  IC50: 54 nM
[3]
  Kyn levels in the tumor: considerable reduction of Kyn levels
  tumor growth: inhibition of tumor growth
[20]
  effect on IDO1-mediated inhibition of T cell proliferation (in words): relieved the inhibitory effect
